Source: PubChem BioAssay (NCI)
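Exposure lasted 48 hours, with cells grown in 96-well plates and compounds tested at five concentrations. TGI is the concentration that stops growth completely.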

Key:
Assay in all cases: NCI tumour cell line growth inhibition, 48 h
786-0 renal = system: 786-0 renal
A498 renal = system: A498 renal
A549 NSCLC = system: A549 NSCLC
ACHN renal = system: ACHN renal
BT-549 breast = system: BT-549 breast
CCRF-CEM leukemia = system: CCRF-CEM leukemia
COLO 205 colon = system: COLO 205 colon
DU-145 prostate = system: DU-145 prostate
EKVX NSCLC = system: EKVX NSCLC
HCC-2998 colon = system: HCC-2998 colon
HCT-116 colon = system: HCT-116 colon
HCT-15 colon = system: HCT-15 colon
HL-60(TB) leukemia = system: HL-60(TB) leukemia
HOP-62 NSCLC = system: HOP-62 NSCLC
HOP-92 NSCLC = system: HOP-92 NSCLC
HS 578T breast = system: HS 578T breast
HT29 colon = system: HT29 colon
IGROV1 ovarian = system: IGROV1 ovarian
K-562 leukemia = system: K-562 leukemia
KM12 colon = system: KM12 colon
LOX IMVI melanoma = system: LOX IMVI melanoma
M14 melanoma = system: M14 melanoma
MALME-3M melanoma = system: MALME-3M melanoma
MCF7 breast = system: MCF7 breast
MDA-MB-231 breast = system: MDA-MB-231 breast
MDA-MB-435 = system: MDA-MB-435
MDA-N = system: MDA-N
MOLT-4 leukemia = system: MOLT-4 leukemia
NCI-H226 lung = system: NCI-H226 lung
NCI-H23 lung = system: NCI-H23 lung
NCI-H460 lung = system: NCI-H460 lung
NCI-H522 lung = system: NCI-H522 lung
NCI/ADR-RES ovarian = system: NCI/ADR-RES ovarian
OVCAR-3 ovarian = system: OVCAR-3 ovarian
OVCAR-4 ovarian = system: OVCAR-4 ovarian
OVCAR-5 ovarian = system: OVCAR-5 ovarian
OVCAR-8 ovarian = system: OVCAR-8 ovarian
PC-3 prostate = system: PC-3 prostate
RPMI-8226 leukemia = system: RPMI-8226 leukemia
RXF 393 renal = system: RXF 393 renal
SF-268 CNS = system: SF-268 CNS
SF-295 CNS = system: SF-295 CNS
SF-539 CNS = system: SF-539 CNS
SK-MEL-2 melanoma = system: SK-MEL-2 melanoma
SK-MEL-28 melanoma = system: SK-MEL-28 melanoma
SK-MEL-5 melanoma = system: SK-MEL-5 melanoma
SK-OV-3 ovarian = system: SK-OV-3 ovarian
SN12C renal = system: SN12C renal
SNB-19 CNS = system: SNB-19 CNS
SNB-75 CNS = system: SNB-75 CNS
SR leukemia = system: SR leukemia
SW-620 colon = system: SW-620 colon
T-47D breast = system: T-47D breast
TK-10 renal = system: TK-10 renal
U251 CNS = system: U251 CNS
UACC-257 melanoma = system: UACC-257 melanoma
UACC-62 melanoma = system: UACC-62 melanoma
UO-31 renal = system: UO-31 renal

CN(C)CCn1c(=O)c2ccc(NCCNCCO)c3c(=O)c4cc(O)ccc4n(c1=O)c23
TGI (786-0 renal): 13.2 µM
TGI (A498 renal): 25.7 µM
TGI (A549 NSCLC): 33.9 µM
TGI (ACHN renal): 8.64 µM
TGI (BT-549 breast): 32.4 µM
TGI (CCRF-CEM leukemia): 2.05 µM
TGI (COLO 205 colon): 4.6 µM
TGI (DU-145 prostate): 4.97 µM
TGI (EKVX NSCLC): 14.3 µM
TGI (HCC-2998 colon): 2.18 µM
TGI (HCT-116 colon): 3.15 µM
TGI (HCT-15 colon): 53.8 µM
TGI (HL-60(TB) leukemia): 4.61 µM
TGI (HOP-62 NSCLC): 4.16 µM
TGI (HOP-92 NSCLC): 4.56 µM
TGI (HS 578T breast): 11.4 µM
TGI (HT29 colon): 5.2 µM
TGI (IGROV1 ovarian): 7.47 µM
TGI (K-562 leukemia): > 30.5 µM
TGI (KM12 colon): 26.6 µM
TGI (LOX IMVI melanoma): 4.42 µM
TGI (M14 melanoma): 13.6 µM
TGI (MALME-3M melanoma): 17.1 µM
TGI (MCF7 breast): 6.23 µM
TGI (MDA-MB-231 breast): 3.37 µM
TGI (MDA-MB-435): 6.53 µM
TGI (MDA-N): 7.49 µM
TGI (MOLT-4 leukemia): 1.17 µM
TGI (NCI-H226 lung): 5.71 µM
TGI (NCI-H23 lung): 3.64 µM
TGI (NCI-H460 lung): 4.51 µM
TGI (NCI-H522 lung): 3.58 µM
TGI (NCI/ADR-RES ovarian): > 100 µM
TGI (OVCAR-3 ovarian): 19.3 µM
TGI (OVCAR-4 ovarian): 3.55 µM
TGI (OVCAR-5 ovarian): 16.1 µM
TGI (OVCAR-8 ovarian): 7.47 µM
TGI (PC-3 prostate): 25.1 µM
TGI (RPMI-8226 leukemia): 8.43 µM
TGI (RXF 393 renal): 3.73 µM
TGI (SF-268 CNS): 14.9 µM
TGI (SF-295 CNS): 21.1 µM
TGI (SF-539 CNS): 1.65 µM
TGI (SK-MEL-2 melanoma): 6.85 µM
TGI (SK-MEL-28 melanoma): 17 µM
TGI (SK-MEL-5 melanoma): 5.22 µM
TGI (SK-OV-3 ovarian): 46.7 µM
TGI (SN12C renal): 5.15 µM
TGI (SNB-19 CNS): 10.8 µM
TGI (SNB-75 CNS): 6.2 µM
TGI (SR leukemia): 0.619 µM
TGI (SW-620 colon): 11.2 µM
TGI (T-47D breast): 13.3 µM
TGI (TK-10 renal): 21.1 µM
TGI (U251 CNS): 8.27 µM
TGI (UACC-257 melanoma): 19.2 µM
TGI (UACC-62 melanoma): 4.23 µM
TGI (UO-31 renal): 28.2 µM
